Measured values reported in patent US20160039852A1, “THERAPEUTIC USES OF BISPHOSPHONATES” (THE UNIVERSITY OF SHEFFIELD, priority 2013, published 2016).
“Also recorded” adds a separate entry of the source.

Legend:
[1] = test system: human mesenchymal stem cells (hMSC); experiment: hMSC growth kinetics, cumulative population doublings with time in culture; assay type: cell-based
unprenylated Rap1A = experiment: Western blot of unprenylated Rap1A in hMSC; assay type: cell-based, human; settings: hMSC exposed to increasing amounts of Zol
Description: (§1) Three times 10^6 hMSC were lysed in mammalian cell lysis buffer (Mammalian cell lysis kit, Sigma-Aldrich, Dorset, UK) containing 250 mM Tris-5 mM EDTA, 750 mM sodium chloride, 0.5% sodium dodecyl sulphate, 2.5% deoxycholic acid and 5% Igepal supplemented with 10 μl of Proteinase inhibitors cocktail (Sigma-Aldrich, Dorset, UK) containing 4-(2-aminoethyl) benzenesulfonyl fluoride (AEBSF), pepstatin A, bestatin, leupeptin, aprotinin and trans-epoxysuccinyl-L-leucyl-amido(4-guanidino)-butane (E-64) according to manufacturer instruction. Phosphatase inhibitor cocktail (Sigma) was also added when preparing lysates for the detection of AKT, pAKT, P70S6K, and p-P70S6K.
Protein lysates (50 μg) were diluted in equal volume of 2× Laemmli buffer (Gibco) containing Dithiothreitol (DTT, Sigma,UK). The samples were heated at 95° C. for 5 minutes and loaded on a 12% Tris-glycine gel. […] Detection was carried out using enhanced chemi-luminescence plus ECL reaction kit (GE Healthcare, Buckinghamshire, UK) and quantification of protein expression was carried out using image J software.
(FPPS) enzyme in the mevalonate pathway and thereby reducing prenylation of small GTPases, such as Rap, Rac, Rho, Rheb (FIG. 3A). […] To this end, levels of unprenylated Rap1A were measured in hMSC exposed to increasing amounts of Zol.

[2] = test system: murine and human cancer lines (PC3, 178-2 BMA, MDA-MB231, 5TGM1, 5T33); experiment: γH2AX foci in cancer lines following irradiation; assay type: cell-based; settings: irradiation (1Gy), Zol, 0, 4, 12, 24 and 48 h post irradiation
Description: (C-H) Number of γH2AX foci enumerated in (C) hMSC, (D) PC3, (E) 178-2 BMA, (F) MDA-MB231,
(G) 5TGM1 and (H) 5T33 lines following irradiation (1Gy) in the presence or absence of Zol ([…]) and assessed at 0, 4, 12, 24 and 48 h post irradiation (n=3).
Human prostate cancer cell line PC3 cells were maintained in DMEM with Glutamax (Gibco) containing 10% FBS (Sigma), 1% penicillin (100units/ml)/streptomycin (100 μg/ml) (Sigma). Mouse prostate cancer cell line 178-2 BMA was cultured as described above with the addition of 0.1 mM 4-(2-hydroxyethyl)-1-piperazineethanesulfonic acid (Life Technologies, Gaithersburg, USA) and 0.01 mM sodium pyruvate (PAA Laboratories). Human breast cancer cell line MDA-MB-231 was cultured in RPMI 1640 with Glutamax supplemented with 10% FBS (Sigma), 0.01 mM sodium pyruvate (PAA laboratories) and penicillin (1 units/ml) and streptomycin (1 μg/ml) (Sigma). […]
DNA damage was induced by exposing hMSC to ^137Cs Gamma source. […] Five to seven fields consisting of 25 cells in total were randomly selected from a tile scan (20×) and individual cells viewed at 63× were then scored for γH2AX DNA damage foci using ImageJ 1.45 software (http://rsbweb.nih.gov/ij/).

mTOR pathway = experiment: Western blot of mTOR pathway effectors in hMSC; assay type: cell-based, human
Description: as §1
Protein lysates (50 μg) were diluted in equal volume of 2× Laemmli buffer (Gibco) containing Dithiothreitol (DTT, Sigma,UK). The samples were heated at 95° C. for 5 minutes and loaded on a 12% Tris-glycine gel. After electro-blotting, membranes were blocked with 5% Bovine serum albumin (BSA) in 0.1% Tween 20 in PBS (PBS-T) for detection of glyceraldehyde-3-phosphate dehydrogenase (GAPDH) and 5% dry milk in PBS-T for detection of unprenylated RAP1A (Santacruz Biotechnology, Santa Cruz, USA). In case of P-AKT, P-70S6K membranes were blocked with 5%BSA in 1× tris buffered saline and 0.1% tween-20 (TBS-T), where for AKT and P70S6K membranes were blocked with 5% dry milk in TBS-T. All membranes were blocked for 2 hours at room temperature. The antibody sc1482 for the detection of RAP1A (Santacruz, USA) was diluted in TBS-T at 1:1000. Antibodies for the detection of AKT, P-AKT, P-70S6K AND PP70S6K, (Cell Signalling Technologies, USA) were diluted at 1:1000. GAPDH antibody (Abcam, Cambridge) was diluted at 1:30000. […] Detection was carried out using enhanced chemi-luminescence plus ECL reaction kit (GE Healthcare, Buckinghamshire, UK) and quantification of protein expression was carried out using image J software.
To test this, the inventors assessed the phosphorylation state of two effectors downstream of TORC1 and TORC2, p-P70S6K and pAKT (Ser473) respectively (FIG. 7A), in hMSC in presence or absence of Zol. […]

[3] = hMSC exposed to Zol (1 μM) for 72 h, n=3

O=P(O)(O)C(O)(Cn1ccnc1)P(=O)(O)O [Zoledronate]
population doublings after which cultures were still proliferating ([1]; hMSC grown in presence of Zol (1 μM), PBS cultures senesced after 21-27 PDs, n=3): 29-36 PDs
ability of hMSC to proliferate and differentiate following irradiation ([1]; irradiated at 3 Gy, Zol for 3 days, washed off 12 h later): rescues hMSCs ability to proliferate and differentiate
hMSC life span / time of proliferation in culture ([1]; versus PBS control, listed as Zol): extension of life span; also recorded: proliferated for a longer time than control cells
expression of unprenylated Rap1A (unprenylated Rap1A): increased expression
DNA repair capacity (γH2AX foci) [2]: does not enhance the DNA repair capacity
mTOR signaling (p-mTOR, p-P70S6K, p-AKT, p-FOXO3A), FIG. 12 (mTOR pathway; hMSC exposed to Zol): inhibition of mTOR signaling
p-P70S6K (mTOR pathway; [3]): significant decrease
pAKT (Ser473) (mTOR pathway; [3]): significant decrease
